Our source for the IC50 and EC50 values is patent publication US20230159511A1, “TETRAHYDROISOQUINOLINE COMPOUNDS AS NRF2 ACTIVATORS” (C4X Discovery Limited, priority 2020, published 2023).

The term IC50 denotes the concentration needed to halve the response being measured. A low value points to greater potency in that assay. The EC50 is the midpoint of the concentration-response curve.

Test [1] concerns the target T1, human KEAP1 (N-term, residues 321-609) (Homo sapiens, UniProt Q14145).
T1 construct: human KEAP1 (N-term, residues 321-609)
The experiment in a line: KEAP1 Kelch Fluorescence Polarization (FP) Assay. Format: binding. Conditions: inhibition of Kelch domain-NRF2 interaction; 2 nM FITC-labelled NRF2 peptide, 25 nM KEAP1, 1 h room temperature; compounds below 10 nM cannot be differentiated. Summed up:
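Compounds in 12-point curves (top 10 μM) displaced 2 nM FITC-labelled NRF2 peptide from 25 nM KEAP1 residues 321-609 over 1 h at room temperature. Polarization read at 470/530 nm, window set by 50 μM unlabelled peptide; four-parameter fit gave IC50, floor 10 nM.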

The test system of test [2] is NRF2 mediated gene NAD(P)H:quinone acceptor oxidoreductase 1 (NQO1) in BEAS-2B cells. The experiment in a line: Beas2B NQO1 mRNA Cell Based Assay. The arrangement: species or system human. The settings on record: Homo sapiens; BEAS-2B cells, compound for 24 h; increase in NQO1 mRNA compared to vehicle (0.1% DMSO) control; read-out: EC50. The procedure: Beas2B NQO1 mRNA Cell Based Assay
The up regulation of the NRF2 mediated gene NAD(P)H:quinone acceptor oxidoreductase 1 (NQO1) was measured using the following assay method: BEAS-2B cells (ATCC CRL-9609) were plated in 96-well clear plates at 20,000 cells/well in 75 μL of cell culture media and incubated overnight (37° C., 5% CO2). On day 2, 25 μL of compound or controls were added to the cells for 24 h. On day 3, the medium was aspirated from the plate and the Cells-to-CT™ 1-Step TaqMan® Kit (Ambion A25603) was used to perform expression analysis directly from cultured cells without RNA purification according to the manufacturer's instructions.
Briefly, cells were washed with ice cold PBS and 22.5 μL of room-temperature DNase/Lysis solution was added to the cells and incubated at room temperature for 5 minutes. To stop the reaction, 2.25 μL of stop solution was added to the cell lysate. The samples were diluted 1:5 using nuclease free water and 2.5 μL transferred into the PCR plate. Real-time PCR was performed using the C-1000 Thermal Cycler (Bio-Rad) using human beta actin as the internal control. The cDNA was amplified with a specific primer for NQO1 using the 1-step RT-PCR master mix (Ambion Cells-to-CTTM 1-Step TaqMan® Kit A25603). The primers/probes sets that were used for amplification of cDNA were obtained from TaqMan Gene Expression Assays (Applied Biosystems). The comparative CT (ΔΔCT) relative quantification method was used to calculate the relative mRNA level of the target gene NQO1 as described in the Applied Biosystems Chemistry Guide. The data are expressed as an increase in target gene mRNA compared to vehicle (0.1% DMSO) control and the EC50 values were determined by fitting the data to a four parameter logistic fit using XLfit or XE Runner within ActivityBase.

T1 sequence (Q14145 321-609): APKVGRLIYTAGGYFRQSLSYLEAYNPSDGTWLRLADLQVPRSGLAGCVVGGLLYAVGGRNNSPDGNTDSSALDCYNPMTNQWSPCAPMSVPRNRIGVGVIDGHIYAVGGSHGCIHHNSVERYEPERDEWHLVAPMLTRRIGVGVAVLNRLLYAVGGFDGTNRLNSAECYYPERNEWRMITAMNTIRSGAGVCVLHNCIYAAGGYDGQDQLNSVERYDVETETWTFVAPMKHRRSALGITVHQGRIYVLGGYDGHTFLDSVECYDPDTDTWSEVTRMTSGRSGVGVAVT

With `CNC(=O)[C@H]1CCCC[C@H]1C(=O)N1CCc2c(Cl)ccc(OCc3noc4ccccc34)c2[C@H]1CN1CCCC1=O` [Example 52, (1S,2R)-2-((S)-8-(benzo[d]isoxazol-3-ylmethoxy)-5-chloro-1-((2-oxopyrrolidin-1-yl)methyl)-1,2,3,4-tetrahydroisoquinoline-2-carbonyl)-N-methylcyclohexane-1-carboxamide], the IC50 in test [1] was found to be 38 nM. In test [2], the EC50 stood at 285 nM.

In the case of `CNC(=O)[C@H]1CCCC[C@H]1C(=O)N1CCc2c(Cl)ccc(OCc3nn(C)c4ccccc34)c2[C@H]1CN1CCCC1=O` [Example 81, (1S,2R)-2-((S)-5-chloro-8-((1-methyl-1H-indazol-3-yl)methoxy)-1-((2-oxopyrrolidin-1-yl)methyl)-1,2,3,4-tetrahydroisoquinoline-2-carbonyl)-N-methylcyclohexane-1-carboxamide], in test [1], the IC50 is 723 nM. Further, in test [2], the EC50 is over 10000 nM.

For the molecule `CNC(=O)[C@@]1(C)CCCC[C@H]1C(=O)N1CCc2c(Cl)ccc(OCc3nnn(C)c3C)c2[C@H]1CN1CC2(CC2)CC1=O` [Example 101, (1S,2R)-2-((S)-5-chloro-8-((1,5-dimethyl-1H-1,2,3-triazol-4-yl)methoxy)-1-((6-oxo-5-azaspiro[2.4]heptan-5-yl)methyl)-1,2,3,4-tetrahydroisoquinoline-2-carbonyl)-N,1-dimethylcyclohexane-1-carboxamide], in test [1], the IC50 was found to be 6.1 nM. The EC50 in test [2] turned out to be 18 nM.

In test [1], `O=C(NCC(F)(F)CO)[C@H]1CCCC[C@H]1C(=O)N1CCc2cccc(O[C@H]3CCN(C(=O)c4cncs4)C3)c2[C@H]1CN1C(=O)c2ccccc2C1=O` [Example 34, (1S,2R)-N-(2,2-difluoro-3-hydroxypropyl)-2-((S)-1-((1,3-dioxoisoindolin-2-yl)methyl)-8-(((S)-1-(thiazole-5-carbonyl)pyrrolidin-3-yl)oxy)-1,2,3,4-tetrahydroisoquinoline-2-carbonyl)cyclohexane-1-carboxamide] registered an IC50 of 36 nM. For the same molecule, the concentration giving a half-maximal response (EC50) in test [2] was determined as 193 nM.

With `CNC(=O)N1CCOC[C@H]1C(=O)N1CCc2c(Cl)ccc(OCc3nnn(C)c3C(F)F)c2[C@H]1CN1CCCC1=O` [Example 87, (S)-3-((S)-5-chloro-8-((5-(difluoromethyl)-1-methyl-1H-1,2,3-triazol-4-yl)methoxy)-1-((2-oxopyrrolidin-1-yl)methyl)-1,2,3,4-tetrahydroisoquinoline-2-carbonyl)-N-methylmorpholine-4-carboxamide], in test [1], 39 nM corresponded to half-maximal inhibition (IC50). In addition, the EC50 in test [2] turned out to be 4130 nM.

In test [1], `CNC(=O)[C@H]1CCCC[C@H]1C(=O)N1CCc2c(Cl)ccc(OCc3nnc(C)n3C)c2[C@H]1CN1CCCC1=O` [Example 86, (1S,2R)-2-((S)-5-chloro-8-((4,5-dimethyl-4H-1,2,4-triazol-3-yl)methoxy)-1-((2-oxopyrrolidin-1-yl)methyl)-1,2,3,4-tetrahydroisoquinoline-2-carbonyl)-N-methylcyclohexane-1-carboxamide] yielded an IC50 of 14 nM. Further, the EC50 in test [2] was found to be 2420 nM.

In turn, `Cc1c(COc2c(F)cc(Cl)c3c2[C@@H](CN2CC4(CC4)CC2=O)N(C(=O)[C@@H]2CCCC[C@]2(C)C(N)=O)CC3)nnn1C` [Example 112, (1S,2R)-2-((S)-5-chloro-8-((1,5-dimethyl-1H-1,2,3-triazol-4-yl)methoxy)-7-fluoro-1-((6-oxo-5-azaspiro[2.4]heptan-5-yl)methyl)-1,2,3,4-tetrahydroisoquinoline-2-carbonyl)-1-methylcyclohexane-1-carboxamide] came in with an IC50 in test [1] of 7 nM. For the same molecule, in test [2], the EC50 was found to be 99 nM.

For `CNC(=O)[C@@]1(C)CCCC[C@H]1C(=O)N1CCc2c(Cl)ccc(OCc3nnn(C)c3C3CC3)c2[C@H]1CN1CC2(CC2)CC1=O` [Example 103, (1S,2R)-2-((S)-5-chloro-8-((5-cyclopropyl-1-methyl-1H-1,2,3-triazol-4-yl)methoxy)-1-((6-oxo-5-azaspiro[2.4]heptan-5-yl)methyl)-1,2,3,4-tetrahydroisoquinoline-2-carbonyl)-N,1-dimethylcyclohexane-1-carboxamide], half-maximal inhibition in test [1] (IC50) required 7.1 nM. In test [2], the EC50 was determined as 57 nM.
